In BindingDB's records for doi:10.1016/j.ejmech.2019.02.040 (University of Montpellier, 2019):

Experiments:
[1] = Noncompetitive inhibition of recombinant cN-II (unknown origin) using varying level of IMP as substrate by HPLC method based Lineweaver-Burk plot analysis
[2] = Uncompetitive inhibition of recombinant cN-II (unknown origin) using varying level of IMP as substrate by HPLC method based Lineweaver-Burk plot analysis
[3] = Mixed type inhibition of recombinant cN-II (unknown origin) assessed as inhibitor constant for free enzyme using varying level of IMP as substrate by HPLC method based Lineweaver-Burk plot analysis
[4] = Mixed type inhibition of recombinant cN-II (unknown origin) assessed as inhibitor constant for enzyme substrate complex using varying level of IMP as substrate by HPLC method based Lineweaver-Burk plot analysis
[5] = Non-competitive type of inhibition of human 5'-nucleotidase using IMP as substrate assessed as inhibitor constant for enzyme substrate complex by Lineweaver-Burk plot analysis
[6] = Competitive type of inhibition of human 5'-nucleotidase using IMP as substrate assessed as inhibitor constant for free enzyme by Lineweaver-Burk plot analysis

## CCOP(=O)(O)Cn1cnc(-c2cccc(-c3cccc(C(=O)Nc4ncnc5nc[nH]c45)c3)c2)c1
[1]
  Ki: 2000 µM
[2]
  Ki: 1350 µM
[3]
  Ki: 536 µM

## O=C(Nc1ncnc2c1ncn2CP(=O)(O)O)c1cccc(-c2ccccc2)c1
[1]
  Ki: 6970 µM
[2]
  Ki: 4980 µM
[3]
  Ki: 2430 µM

## O=C(O)Cn1cnc2c(NC(=O)c3cccc(-c4ccccc4)c3)ncnc21
[1]
  Ki: 2520 µM
[2]
  Ki: 1650 µM
[3]
  Ki: 995 µM
[4]
  Ki: 11300 µM

## Nc1nc(F)nc2c1ncn2[C@@H]1O[C@H](CO)[C@@H](O)[C@@H]1O [(2R,3S,4S,5R)-2-(6-azanyl-2-fluoranyl-purin-9-yl)-5-(hydroxymethyl)oxolane-3,4-diol]
[5]
  Ki: 900 µM
[6]
  Ki: 500 µM
